# Results from patent US20220389061A1, “IMMUNOMODULATORS” (priority 2019, published 2022).
# Like-named read-outs stand apart in the source and are kept apart here. Starred links: 1 amine or outer side, 2 acyl side, 3 side chain; linkers in the order of their positions; H or OH if unused. Positions of bridges follow the written chain, without caps; N, C: chain ends. Non-standard residues stand in square brackets, D forms with d. Residues, ends and D or L forms follow the SMILES beside them. Groups on a side chain read outwards from the residue. *: point of attachment. Trp(1-CH2CO2Me) = COC(=O)Cn1cc(C[C@H](N)C(=O)O)c2ccccc21; Trp(1-CH2COOH) = N[C@@H](Cc1cn(CC(=O)O)c2ccccc12)C(=O)O; Benzoyl(2-(4-MeOPh)) = COc1ccc(-c2ccccc2C(=O)*)cc1; NH(1-naphthyl) = c1ccc2c(N*)cccc2c1; Hyp = O=C(O)[C@@H]1C[C@@H](O)CN1; X43 = S=C(Nc1ccccc1Oc1ccccc1)*; NMeNle = CCCC[C@H](NC)C(=O)O; X86 = CCOc1ccc(NC(=S)*)cc1; NMeA = CN[C@@H](C)C(=O)O; Dab = NCC[C@H](N)C(=O)O; Dap = NC[C@H](N)C(=O)O; X21 = S=C(Nc1ccccn1)*; CO = O=C([*:1])[*:2]
# Biological target: T1, PD-1/PD-L1 (Homo sapiens, UniProt Q9NZQ7)
# T1 construct: TVMV protease site linker (C); made in house; host or cells: HEK293T cells
# Assay: PD-1/PD-L1 Homogenous Time-Resolved Fluorescence (HTRF) binding assay
# Outline: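 Compounds preincubated 15 min with PD-L1-His (10 nM final), then PD-1-Ig (20 nM final) added for 15 min in dPBS with 0.1% BSA, 0.05% Tween-20. Detection by Eu-cryptate anti-Ig (1 nM) and APC anti-His (20 nM) HTRF.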
# [1] = PD-L1-His 10 nM pre-incubated with inhibitor, PD-1-Ig 20 nM, read-out: HTRF IC50
# T1 sequence (Q9NZQ7 18-239): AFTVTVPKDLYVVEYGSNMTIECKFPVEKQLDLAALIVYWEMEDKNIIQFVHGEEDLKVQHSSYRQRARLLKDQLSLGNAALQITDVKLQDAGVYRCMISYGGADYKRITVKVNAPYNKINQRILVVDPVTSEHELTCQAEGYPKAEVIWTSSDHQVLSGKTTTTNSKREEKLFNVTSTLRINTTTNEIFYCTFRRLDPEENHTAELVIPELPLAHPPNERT
IC50 [1],SMILES,IC50
4.2 nM,CCCC[C@H]1C(=O)N(C)[C@@H](CCCC)C(=O)N[C@@H](CC(C)C)C(=O)N[C@H](C(=O)NCC(N)=O)CSCC(=O)N[C@@H](Cc2ccc(O)cc2)C(=O)N(C)[C@@H](C)C(=O)N[C@@H](CC(N)=O)C(=O)N2CCC[C@H]2C(=O)N[C@@H](CNC(=S)Nc2ccccn2)C(=O)N[C@@H](CC(C)C)C(=O)N2C[C@H](O)C[C@H]2C(=O)N[C@@H](Cc2c[nH]c3ccccc23)C(=O)N[C@@H](CCNC(=S)Nc2ccccn2)C(=O)N[C@@H](Cc2cn(CC(=O)O)c3ccccc23)C(=O)N1C [Example 1021] ({CH2CO}-Y[NMeA]NP[Dap](X21)L[Hyp]W[Dab](X21)[Trp(1-CH2COOH)][NMeNle][NMeNle]LCG-NH2; thioether N-14),–
9.4 nM,CCCC[C@H]1C(=O)N(C)[C@@H](CCCC)C(=O)N[C@@H](CC(C)C)C(=O)N[C@H](C(=O)NCC(N)=O)CSCC(=O)N[C@@H](Cc2ccc(O)cc2)C(=O)N(C)[C@@H](C)C(=O)N[C@@H](CC(N)=O)C(=O)N2CCC[C@H]2C(=O)N[C@@H](CNC(=S)Nc2ccccc2Oc2ccccc2)C(=O)N[C@@H](CC(C)C)C(=O)N2C[C@H](O)C[C@H]2C(=O)N[C@@H](Cc2c[nH]c3ccccc23)C(=O)N[C@@H](CCNC(=S)Nc2ccccc2Oc2ccccc2)C(=O)N[C@@H](Cc2cn(CC(=O)O)c3ccccc23)C(=O)N1C [Example 1129] ({CH2CO}-Y[NMeA]NP[Dap](X43)L[Hyp]W[Dab](X43)[Trp(1-CH2COOH)][NMeNle][NMeNle]LCG-NH2; thioether N-14),–
4.3 nM,CCCC[C@H]1C(=O)N(C)[C@@H](CCCC)C(=O)N[C@@H](CC(C)C)C(=O)N[C@H](C(=O)NCC(N)=O)CSCC(=O)N[C@@H](Cc2ccc(O)cc2)C(=O)N(C)[C@@H](C)C(=O)N[C@@H](CC(N)=O)C(=O)N2CCC[C@H]2C(=O)N[C@@H](CNC(=S)Nc2ccc(OCC)cc2)C(=O)N[C@@H](CC(C)C)C(=O)N2C[C@H](O)C[C@H]2C(=O)N[C@@H](Cc2c[nH]c3ccccc23)C(=O)N[C@@H](CCN)C(=O)N[C@@H](Cc2cn(CC(=O)O)c3ccccc23)C(=O)N1C [Example 1026] ({CH2CO}-Y[NMeA]NP[Dap](X86)L[Hyp]W[Dab][Trp(1-CH2COOH)][NMeNle][NMeNle]LCG-NH2; thioether N-14),–

# Further lines, the molecule ahead of its results:
SMILES,IC50 [1],IC50
CCCC[C@H]1C(=O)N(C)[C@@H](CCCC)C(=O)N[C@@H](CC(C)C)C(=O)N[C@H](C(=O)NCC(N)=O)CSCC(=O)N[C@@H](Cc2ccc(O)cc2)C(=O)N(C)[C@@H](C)C(=O)N[C@@H](CC(N)=O)C(=O)N2CCC[C@H]2C(=O)N[C@@H](CNC(=O)Nc2cccc3ccccc23)C(=O)N[C@@H](CC(C)C)C(=O)N2C[C@H](O)C[C@H]2C(=O)N[C@@H](Cc2c[nH]c3ccccc23)C(=O)N[C@@H](CCN)C(=O)N[C@@H](Cc2cn(CC(=O)O)c3ccccc23)C(=O)N1C [Example 3040] ({CH2CO}-Y[NMeA]NP[Dap]([CO-NH(1-naphthyl)])L[Hyp]W[Dab][Trp(1-CH2COOH)][NMeNle][NMeNle]LCG-NH2; thioether N-14),–,0.8 nM
CCCC[C@H]1C(=O)N(C)[C@@H](CCCC)C(=O)N[C@@H](CC(C)C)C(=O)N[C@H](C(=O)NCC(N)=O)CSCC(=O)N[C@@H](Cc2ccc(O)cc2)C(=O)N(C)[C@@H](C)C(=O)N[C@@H](CC(N)=O)C(=O)N2CCC[C@H]2C(=O)N[C@@H](CNC(=O)c2ccccc2-c2ccc(OC)cc2)C(=O)N[C@@H](CC(C)C)C(=O)N2C[C@H](O)C[C@H]2C(=O)N[C@@H](Cc2c[nH]c3ccccc23)C(=O)N[C@@H](CCN)C(=O)N[C@@H](Cc2cn(CC(=O)OC)c3ccccc23)C(=O)N1C [Example 1057] ({CH2CO}-Y[NMeA]NP[Dap](Benzoyl(2-(4-MeOPh)))L[Hyp]W[Dab][Trp(1-CH2CO2Me)][NMeNle][NMeNle]LCG-NH2; thioether N-14),3.2 nM,–
